Consider 14 molecules from patent publication US11702422B2, “Imidazopyridazines as modulators of IL-17” (Janssen Pharmaceutica NV, priority 2020, dated 2023).

For assay [1], the target named is IL-17A(FLAG-Tagged): IL-17RA(His-Tagged) (Homo sapiens, UniProt Q16552, K93Q). Briefly: IL-17A(FLAG-Tagged): IL-17RA(His-Tagged) Binding Disruption Eu-HTRF Assay. The settings on record: IL-17A/IL-17RA binding disruption, simple average if tested more than once. The method, boiled down: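 IC50 comes from a one-site competition fit of the HTRF 665/620 nm ratio. Compound dilutions (2-fold, 22 points) were held 1 h rt with FLAG-tagged IL-17A dimer, then His-tagged IL-17RA plus Eu-cryptate anti-FLAG and D2 anti-His antibodies were added for 2 h rt.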

Assay [2] relates to IL-17A-induced G-CSF production in human normal keratinocyte (NHK). Put plainly: NHK Assay: IL-17A-induced G-CSF production in human normal keratinocytes. It counts as cell-based. The settings on record: Homo sapiens, Keratinocyte, 24 h, adult normal human keratinocytes, IL-17A 5 ng/mL, simple average if tested more than once. The method in brief: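 Inhibition of IL-17A-driven G-CSF release is measured in adult keratinocytes stimulated for 24 h at 37° C with 5 ng/mL human IL-17A that had been pre-incubated with compound for 1 h. IC50 comes from HTRF G-CSF levels; cell viability is checked in parallel by luminescent ATP assay.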

UniProt Q16552, sequence (Q16552 with tags, fused parts or gaps K93Q): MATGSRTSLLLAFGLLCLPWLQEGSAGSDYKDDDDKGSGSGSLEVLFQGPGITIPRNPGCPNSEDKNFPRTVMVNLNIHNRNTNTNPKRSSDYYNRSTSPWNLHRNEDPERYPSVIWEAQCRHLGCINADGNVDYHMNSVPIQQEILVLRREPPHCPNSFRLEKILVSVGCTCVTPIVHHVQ

For the molecule `O=C(CCC(F)(F)F)N[C@@H](c1cnn2cc([C@@H](NC(=O)[C@@H]3C[C@H]3F)C3CCC(F)(F)CC3)nc2c1)C1CC1` [Example 90, (1S,2R)—N—((S)-(7-((R)-Cyclopropyl(4,4,4-trifluorobutanamido)methyl)imidazo[1,2-b]pyridazin-2-yl)(4,4-difluorocyclohexyl)methyl)-2-fluorocyclopropane-1-carboxamide], the IC50 in assay [1] is 1500 nM; in assay [2], about 20000 nM.

`O=C(CCC(F)(F)F)N[C@@H](c1cnn2cc([C@@H](NC(=O)c3cnnn3CC3CCC3(F)F)C3CCC(F)(F)CC3)nc2c1)C1CC1` (stereo partly drawn) [Example 91, N—((S)-(7-((R)-Cyclopropyl(4,4,4-trifluorobutanamido)methyl)imidazo[1,2-b]pyridazin-2-yl)(4,4-difluorocyclohexyl)methyl)-1-((2,2-difluorocyclobutyl)methyl)-1H-1,2,3-triazole-5-carboxamide]: the IC50 in assay [1] came out at 92 nM; in assay [2], 120 nM.

On to `O=C(CCC(F)(F)F)N[C@@H](c1cnn2cc([C@@H](NC(=O)c3cnnn3CC3CC3(F)F)C3CCC(F)(F)CC3)nc2c1)C1CC1` (stereo partly drawn) [Example 92, N—((S)-(7-((R)-Cyclopropyl(4,4,4-trifluorobutanamido)methyl)imidazo[1,2-b]pyridazin-2-yl)(4,4-difluorocyclohexyl)methyl)-1-((2,2-difluorocyclopropyl)methyl)-1H-1,2,3-triazole-5-carboxamide], for which the IC50 in assay [1] is 110 nM; in assay [2], 140 nM.

For the molecule `O=C(CCC(F)(F)F)N[C@@H](c1cnn2cc([C@@H](NC(=O)c3cnn(CC4CC4(F)F)n3)C3CCC(F)(F)CC3)nc2c1)C1CC1` (stereo partly drawn) [Example 93, N—((S)-(7-((R)-Cyclopropyl(4,4,4-trifluorobutanamido)methyl)imidazo[1,2-b]pyridazin-2-yl)(4,4-difluorocyclohexyl)methyl)-2-((2,2-difluorocyclopropyl)methyl)-2H-1,2,3-triazole-4-carboxamide], the IC50 in assay [1] was found to be 150 nM; in assay [2], 280 nM.

Regarding `O=C(CCC(F)(F)F)N[C@@H](c1cnn2cc([C@@H](NC(=O)c3cnnn3CC3CC(F)(F)C3(F)F)C3CCC(F)(F)CC3)nc2c1)C1CC1` (stereo partly drawn) [Example 94, N—((S)-(7-((R)-Cyclopropyl(4,4,4-trifluorobutanamido)methyl)imidazo[1,2-b]pyridazin-2-yl)(4,4-difluorocyclohexyl)methyl)-1-((2,2,3,3-tetrafluorocyclobutyl)methyl)-1H-1,2,3-triazole-5-carboxamide], the IC50 came out at 110 nM in assay [1] and 150 nM in assay [2].

Consider `O=C(CCC(F)(F)F)N[C@@H](c1cnn2cc([C@@H](NC(=O)c3cnn(CC4CC(F)(F)C4(F)F)n3)C3CCC(F)(F)CC3)nc2c1)C1CC1` (stereo partly drawn) [Example 95, N—((S)-(7-((R)-Cyclopropyl(4,4,4-trifluorobutanamido)methyl)imidazo[1,2-b]pyridazin-2-yl)(4,4-difluorocyclohexyl)methyl)-2-((2,2,3,3-tetrafluorocyclobutyl)methyl)-2H-1,2,3-triazole-4-carboxamide], for which the results for the IC50 in assay [1] and in assay [2] were 100 nM and 260 nM, respectively.

Turning to `O=C(CCC(F)(F)F)N[C@@H](c1cnn2cc([C@@H](NC(=O)c3cn(CC4CC(F)(F)C4(F)F)nn3)C3CCC(F)(F)CC3)nc2c1)C1CC1` (stereo partly drawn) [Example 96, N—((S)-(7-((R)-Cyclopropyl(4,4,4-trifluorobutanamido)methyl)imidazo[1,2-b]pyridazin-2-yl)(4,4-difluorocyclohexyl)methyl)-1-((2,2,3,3-tetrafluorocyclobutyl)methyl)-1H-1,2,3-triazole-4-carboxamide], the IC50 came to 370 nM in assay [1] and 2200 nM in assay [2].

In the case of `O=C(CCC(F)(F)F)N[C@@H](c1cnn2cc([C@@H](NC(=O)[C@H]3C[C@H]3F)C3CCC(F)(F)CC3)nc2c1)C1CC1` [Example 97, (1R,2R)—N—((S)-(7-((R)-Cyclopropyl(4,4,4-trifluorobutanamido)methyl)imidazo[1,2-b]pyridazin-2-yl)(4,4-difluorocyclohexyl)methyl)-2-fluorocyclopropane-1-carboxamide], the IC50 is 5400 nM in assay [1] and over 20000 nM in assay [2].

As to `O=C(CCC(F)(F)F)N[C@@H](c1cnn2cc([C@@H](NC(=O)[C@H]3C[C@@H]3F)C3CCC(F)(F)CC3)nc2c1)C1CC1` [Example 98, (1R,2S)—N—((S)-(7-((R)-Cyclopropyl(4,4,4-trifluorobutanamido)methyl)imidazo[1,2-b]pyridazin-2-yl)(4,4-difluorocyclohexyl)methyl)-2-fluorocyclopropane-1-carboxamide], the values for the IC50 in assay [1] and in assay [2] were 770 nM and 2300 nM, respectively.

With `O=C(CCC(F)(F)F)N[C@@H](c1cnn2cc([C@@H](NC(=O)c3conc3CCF)C3CCC(F)(F)CC3)nc2c1)C1CC1` [Example 99, N—[(S)-[7-[(R)-Cyclopropyl-(4,4,4-trifluorobutanoylamino)methyl]imidazo[1,2-b]pyridazin-2-yl]-(4,4-difluorocyclohexyl)methyl]-3-(2-fluoroethyl)isoxazole-4-carboxamide], the values for the IC50 in assay [1] and in assay [2] were 57 nM and 60 nM, respectively.

`CC1(c2nocc2C(=O)N[C@H](c2cn3ncc([C@H](NC(=O)CCC(F)(F)F)C4CC4)cc3n2)C2CCC(F)(F)CC2)COC1` [Example 100, N—[(S)-[7-[(R)-Cyclopropyl-(4,4,4-trifluorobutanoylamino)methyl]imidazo[1,2-b]pyridazin-2-yl]-(4,4-difluorocyclohexyl)methyl]-3-(3-methyloxetan-3-yl)isoxazole-4-carboxamide]: the figures for the IC50 in assay [1] and in assay [2] were 160 nM and 85 nM, respectively.

On to `O=C(CCC(F)(F)F)N[C@@H](c1cnn2cc([C@@H](NC(=O)c3conc3C(F)(F)F)C3CCC(F)(F)CC3)nc2c1)C1CC1` [Example 101, N—[(S)-[7-[(R)-Cyclopropyl-(4,4,4-trifluorobutanoylamino)methyl]imidazo[1,2-b]pyridazin-2-yl]-(4,4-difluorocyclohexyl)methyl]-3-(trifluoromethyl)isoxazole-4-carboxamide], for which the IC50 in assay [1] is 39 nM; in assay [2] it was 160 nM.

Regarding `COCc1nocc1C(=O)N[C@H](c1cn2ncc([C@H](NC(=O)CCC(F)(F)F)C3CC3)cc2n1)C1CCC(F)(F)CC1` [Example 102, N—[(S)-[7-[(R)-Cyclopropyl-(4,4,4-trifluorobutanoylamino)methyl]imidazo[1,2-b]pyridazin-2-yl]-(4,4-difluorocyclohexyl)methyl]-3-(methoxymethyl)isoxazole-4-carboxamide], the IC50 in assay [1] was 120 nM; in assay [2], 270 nM.

Regarding `O=C(CCC(F)(F)F)N[C@@H](c1cnn2cc([C@@H](NC(=O)c3ncnn3C3CC3)C3CCC(F)(F)CC3)nc2c1)C1CC1` [Example 103, 1-Cyclopropyl-N—((S)-(7-((R)-cyclopropyl(4,4,4-trifluorobutanamido)methyl)imidazo[1,2-b]pyridazin-2-yl)(4,4-difluorocyclohexyl)methyl)-1H-1,2,4-triazole-5-carboxamide], the IC50 in assay [1] was determined as 110 nM; in assay [2], 370 nM.
